From paper PMC10343299, “S-Ethyl-Isothiocitrullin-Based Dipeptides and 1,2,4-Oxadiazole Pseudo-Dipeptides: Solid Phase Synthesis and Evaluation as NO Synthase Inhibitors” (Molecules, 2023)

Assays:
[1] = target: T1, mouse iNOS (Mus musculus, UniProt P29477); test: NOS inhibition, oxyhemoglobin (hemoglobin capture) test, recombinant iNOS; format: biochemical; details: dipeptide-like series, recombinant enzyme, 20 µM arginine, triplicate, NI = <50% inhibition at 100 μM
T1 construct: Full-length recombinant rat nNOS, mouse iNOS, bovine eNOS; made in house; host or cells: Escherichia coli
T1 sequence (P29477 1-1144): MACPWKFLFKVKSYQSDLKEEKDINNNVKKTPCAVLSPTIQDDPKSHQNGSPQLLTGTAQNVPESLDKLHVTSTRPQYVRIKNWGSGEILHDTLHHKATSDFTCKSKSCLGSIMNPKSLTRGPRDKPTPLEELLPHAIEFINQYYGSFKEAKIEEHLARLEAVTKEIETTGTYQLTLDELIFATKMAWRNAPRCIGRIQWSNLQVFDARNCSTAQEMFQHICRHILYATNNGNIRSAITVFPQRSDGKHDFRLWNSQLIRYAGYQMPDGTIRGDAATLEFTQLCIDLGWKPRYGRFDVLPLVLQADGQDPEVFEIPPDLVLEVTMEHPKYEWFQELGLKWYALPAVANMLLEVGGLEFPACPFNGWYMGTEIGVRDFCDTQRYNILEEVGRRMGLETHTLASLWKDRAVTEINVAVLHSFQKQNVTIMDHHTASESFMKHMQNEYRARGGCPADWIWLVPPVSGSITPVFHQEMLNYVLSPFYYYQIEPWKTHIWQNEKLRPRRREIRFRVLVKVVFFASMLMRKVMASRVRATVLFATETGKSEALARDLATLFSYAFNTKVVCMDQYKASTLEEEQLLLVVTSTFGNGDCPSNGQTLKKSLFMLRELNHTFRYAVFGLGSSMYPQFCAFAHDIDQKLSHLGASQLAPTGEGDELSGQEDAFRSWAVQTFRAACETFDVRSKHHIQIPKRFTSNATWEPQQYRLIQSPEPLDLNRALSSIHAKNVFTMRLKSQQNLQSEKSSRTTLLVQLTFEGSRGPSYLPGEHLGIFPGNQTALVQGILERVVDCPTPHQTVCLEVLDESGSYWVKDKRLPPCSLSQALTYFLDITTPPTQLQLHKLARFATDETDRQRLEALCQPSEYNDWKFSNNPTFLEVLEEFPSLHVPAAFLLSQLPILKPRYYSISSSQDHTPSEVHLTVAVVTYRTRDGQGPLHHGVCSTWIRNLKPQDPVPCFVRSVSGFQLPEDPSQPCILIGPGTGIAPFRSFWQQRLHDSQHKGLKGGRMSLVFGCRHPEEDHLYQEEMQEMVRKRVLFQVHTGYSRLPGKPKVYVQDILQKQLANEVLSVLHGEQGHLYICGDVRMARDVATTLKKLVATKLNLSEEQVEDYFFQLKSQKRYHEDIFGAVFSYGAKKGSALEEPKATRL
Summary of the method: (§1)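 Full-length E. coli-expressed recombinant enzyme; NO formation followed kinetically at 401 nm via oxyhemoglobin capture at 30 °C in 100 mM Hepes pH 7.5 with NADPH, BH4, FAD, FMN, DTT; arginine 20 µM (iNOS) or 10 µM (nNOS, plus calmodulin and CaCl2). Screened at 100 and 10 μM; IC50 if >50% inhibition at 100 μM.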

[2] = target: T2, oxygenase domain of nNOS (nNOSoxy) (Rattus norvegicus, UniProt P29476); test: UV-visible difference spectroscopy titration of nNOSoxy; format: binding; details: UV/Vis difference spectroscopy, ± SD, three experiments; read-out: Apparent equilibrium constant Ks nNOSoxy
T2 construct: the oxygenase domain of nNOS (nNOSoxy) and iNOS (iNOSoxy); made in house; host or cells: Escherichia coli
T2 sequence (P29476 1-720 limits assumed): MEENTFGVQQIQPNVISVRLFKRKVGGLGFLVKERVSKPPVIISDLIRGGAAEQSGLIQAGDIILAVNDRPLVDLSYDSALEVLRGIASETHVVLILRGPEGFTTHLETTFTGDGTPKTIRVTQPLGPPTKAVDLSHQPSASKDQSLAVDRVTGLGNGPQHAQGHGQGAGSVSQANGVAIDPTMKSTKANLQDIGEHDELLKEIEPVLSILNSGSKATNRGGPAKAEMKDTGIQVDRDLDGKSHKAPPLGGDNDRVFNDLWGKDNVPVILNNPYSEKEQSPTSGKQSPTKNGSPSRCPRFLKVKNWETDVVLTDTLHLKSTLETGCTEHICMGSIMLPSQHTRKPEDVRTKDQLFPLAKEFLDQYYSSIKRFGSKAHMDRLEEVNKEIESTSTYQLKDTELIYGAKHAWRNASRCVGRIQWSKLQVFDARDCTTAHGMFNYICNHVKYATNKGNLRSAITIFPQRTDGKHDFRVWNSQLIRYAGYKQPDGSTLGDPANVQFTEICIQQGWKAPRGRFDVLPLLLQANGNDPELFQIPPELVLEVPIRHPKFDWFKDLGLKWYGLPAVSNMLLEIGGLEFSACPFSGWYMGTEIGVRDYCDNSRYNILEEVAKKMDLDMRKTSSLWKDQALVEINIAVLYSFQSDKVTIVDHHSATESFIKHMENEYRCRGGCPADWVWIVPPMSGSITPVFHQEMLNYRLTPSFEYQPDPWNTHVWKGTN
Excerpt: We performed UV–visible difference spectroscopy to analyze the interaction mode of some inhibitors with the heme-active site of NOS [54]. We have studied the effects of dipeptide-like compounds 7, 17, 19, 23, and 27 and 1,2,4-oxadiazole 35 on the UV–visible spectra of the oxygenase domain of nNOS (nNOSoxy) and iNOS (iNOSoxy). As expected, when added stepwise to n- and iNOSoxy, all selected compounds elicited different spectra with a trough at ~425 nm and a peak at ~395 nm, similar to the substrate L-arginine. This profile is characteristic of type I interactions, meaning that they are bound in close proximity to the heme prosthetic group and shifted the spin state equilibrium to the pentacoordinated heme–Fe^III state. Double reverse plotting of the differences in absorbance between the peak at ~395 nm and valley at ~425 nm (ΔA395–425 nm) as a function of the concentration of the added compounds allowed calculating apparent binding constants (Ks) (Table 3). The reference inhibitor SEITU [55] tightly bound both NOS isoforms with high affinity but no selectivity. With the exception of the dipeptide-like 27 and the heterocyclic analog 35, which similarly interacted with both proteins, other compounds preferentially bound nNOSoxy over iNOSoxy with apparent affinities close to SEITU for this isoform.
Full-length recombinant rat nNOS, mouse iNOS, bovine eNOS, and the heme domains of rat brain nNOS and mouse iNOS were expressed in Escherichia coli and purified as described previously.
This study was performed as previously described.

[3] = target: T3, rat nNOS (Rattus norvegicus, UniProt P29476); test: NOS inhibition, oxyhemoglobin (hemoglobin capture) test, recombinant nNOS; format: biochemical; details: dipeptide-like series; recombinant enzyme, 10 µM arginine, triplicate; NI = <50% inhibition at 100 μM
T3 construct: Full-length recombinant rat nNOS, mouse iNOS, bovine eNOS; made in house; host or cells: Escherichia coli
T3 sequence (P29476 whole entry): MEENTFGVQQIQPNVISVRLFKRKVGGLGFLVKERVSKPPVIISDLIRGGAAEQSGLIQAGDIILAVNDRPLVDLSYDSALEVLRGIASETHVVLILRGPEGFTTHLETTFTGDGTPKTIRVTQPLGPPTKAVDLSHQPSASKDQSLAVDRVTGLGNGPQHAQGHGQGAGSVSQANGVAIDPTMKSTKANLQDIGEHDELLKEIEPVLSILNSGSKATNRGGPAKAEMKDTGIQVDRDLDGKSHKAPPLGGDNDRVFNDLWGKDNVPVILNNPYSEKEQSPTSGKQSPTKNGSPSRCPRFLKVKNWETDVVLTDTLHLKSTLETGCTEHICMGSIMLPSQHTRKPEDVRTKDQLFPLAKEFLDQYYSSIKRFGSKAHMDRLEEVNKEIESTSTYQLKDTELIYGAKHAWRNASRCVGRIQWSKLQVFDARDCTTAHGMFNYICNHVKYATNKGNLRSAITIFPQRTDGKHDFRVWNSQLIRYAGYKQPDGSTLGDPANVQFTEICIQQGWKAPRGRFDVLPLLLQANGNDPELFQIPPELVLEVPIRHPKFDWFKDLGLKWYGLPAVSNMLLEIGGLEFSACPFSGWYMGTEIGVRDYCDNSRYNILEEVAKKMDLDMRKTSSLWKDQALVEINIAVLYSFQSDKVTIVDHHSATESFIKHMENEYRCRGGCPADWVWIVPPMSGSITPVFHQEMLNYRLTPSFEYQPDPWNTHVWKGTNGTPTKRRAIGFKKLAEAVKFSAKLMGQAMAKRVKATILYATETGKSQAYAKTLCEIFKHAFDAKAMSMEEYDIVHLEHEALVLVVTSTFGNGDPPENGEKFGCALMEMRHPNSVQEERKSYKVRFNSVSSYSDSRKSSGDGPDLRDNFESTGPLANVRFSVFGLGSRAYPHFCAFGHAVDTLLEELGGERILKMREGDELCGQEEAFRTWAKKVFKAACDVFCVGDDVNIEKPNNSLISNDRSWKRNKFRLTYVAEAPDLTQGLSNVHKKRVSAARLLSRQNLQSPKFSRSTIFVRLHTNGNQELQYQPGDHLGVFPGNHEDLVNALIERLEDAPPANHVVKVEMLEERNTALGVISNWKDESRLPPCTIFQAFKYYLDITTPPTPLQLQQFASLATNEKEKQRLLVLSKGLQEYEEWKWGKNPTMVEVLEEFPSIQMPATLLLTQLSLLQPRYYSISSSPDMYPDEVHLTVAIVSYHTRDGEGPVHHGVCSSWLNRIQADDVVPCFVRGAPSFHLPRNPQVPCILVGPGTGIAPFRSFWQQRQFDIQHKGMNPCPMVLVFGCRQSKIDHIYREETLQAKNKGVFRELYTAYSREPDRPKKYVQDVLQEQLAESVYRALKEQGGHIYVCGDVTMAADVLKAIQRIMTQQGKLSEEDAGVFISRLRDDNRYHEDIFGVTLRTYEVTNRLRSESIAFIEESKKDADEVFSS
Summary of the method: as §1

## CCSC(=N)NCCC[C@H](N)C(=O)N[C@H]1CCCN(Cc2ccccc2)C1 [Compound 7]
[1]
  IC50: 73.4 µM
[2]
  Kd: 7.1 ± 2.6 µM
[3]
  IC50: 17.5 µM

## CCSC(=N)NCCC[C@H](N)C(=O)N[C@H]1CCCN(Cc2ccc(Cl)c(C(F)(F)F)c2)C1 [Compound 17]
[1]
  IC50: 12.9 µM
[2]
  Kd: 3.6 ± 1.5 µM
[3]
  IC50: 5 µM

## CCSC(=N)NCCC[C@H](N)C(=O)N[C@H]1CCCN(Cc2cccc(-c3cccc(C(=O)O)c3)c2)C1 [Compound 27]
[1]; read-out: IC50 (μM) iNOS (Mouse)
  inhibition at 100 µM: < 50%
[2]
  Kd: 70.6 ± 22.8 µM
[3]
  IC50: 9.5 µM
